{
  "source": "patent US10017463B2",
  "about": "“Inhibitors of deubiquitinating proteases” (Brandeis University, priority 2014, dated 2018)",
  "key": {"[1]": {"target": "T1, cathepsin C (Mus musculus, UniProt P97821)", "T1 construct": "Mouse full length cathepsin C was from RnD systems; purchased RnD systems (Minneapolis, Minn.)", "T1 sequence (P97821 231-393 limits assumed)": "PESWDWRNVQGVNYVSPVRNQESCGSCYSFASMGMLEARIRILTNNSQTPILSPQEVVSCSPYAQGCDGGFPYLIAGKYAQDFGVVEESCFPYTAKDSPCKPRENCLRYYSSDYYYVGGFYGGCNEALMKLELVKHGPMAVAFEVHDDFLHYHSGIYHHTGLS", "T1 sequence (P97821 25-134 limits assumed)": "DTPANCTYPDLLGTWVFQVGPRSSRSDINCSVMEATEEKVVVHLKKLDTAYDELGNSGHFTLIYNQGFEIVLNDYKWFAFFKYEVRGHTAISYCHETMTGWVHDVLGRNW", "T1 sequence (P97821 394-462 limits assumed)": "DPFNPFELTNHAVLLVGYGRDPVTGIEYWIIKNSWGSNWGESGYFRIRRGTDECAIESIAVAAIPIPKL", "assay": "Cathepsin C inhibition (Gly-Phe-AMC)", "format": "biochemical", "settings": "for EC50 for cathepsin C inhibition: 30 min preincubation, substrate 150 μM", "protocol": "Panel A is a plot showing the KM calculation for cathepsin C and substrate, Gly-Phe-AMC. Panel B is a plot showing Cathepsin C was incubated with the stated compound for 30 min prior to addition of substrate and residual activity was measured. Panel C is a plot showing the EC50 values calculated from Panel B.\nCathepsin C is an enzyme important in inflammation. […] The assay was undertaken by incubating the enzyme in the presence of compound for 30 min, then adding substrate (150 μM; kM=75 μM) and measuring residual activity. […] TCM41, TCM42, TCM58, TCM43, and TCM97 (FIG. 12). […] Furthermore, substitution in the 3-position of the aniline function appeared to be more favored than 4-substitution (TCM97 vs TCM41). However substitution on the phenyl ester function was much less important for inhibition, with chloro, fluoro and proton all giving similar inhibition potencies."}, "[2]": {"target": "T2, USP9x (Homo sapiens, UniProt Q93008)", "T2 construct": "Lysate labeling assay on untransfected cells; endogenous in cells; host or cells: K562", "T2 sequence (Q93008 whole entry)": "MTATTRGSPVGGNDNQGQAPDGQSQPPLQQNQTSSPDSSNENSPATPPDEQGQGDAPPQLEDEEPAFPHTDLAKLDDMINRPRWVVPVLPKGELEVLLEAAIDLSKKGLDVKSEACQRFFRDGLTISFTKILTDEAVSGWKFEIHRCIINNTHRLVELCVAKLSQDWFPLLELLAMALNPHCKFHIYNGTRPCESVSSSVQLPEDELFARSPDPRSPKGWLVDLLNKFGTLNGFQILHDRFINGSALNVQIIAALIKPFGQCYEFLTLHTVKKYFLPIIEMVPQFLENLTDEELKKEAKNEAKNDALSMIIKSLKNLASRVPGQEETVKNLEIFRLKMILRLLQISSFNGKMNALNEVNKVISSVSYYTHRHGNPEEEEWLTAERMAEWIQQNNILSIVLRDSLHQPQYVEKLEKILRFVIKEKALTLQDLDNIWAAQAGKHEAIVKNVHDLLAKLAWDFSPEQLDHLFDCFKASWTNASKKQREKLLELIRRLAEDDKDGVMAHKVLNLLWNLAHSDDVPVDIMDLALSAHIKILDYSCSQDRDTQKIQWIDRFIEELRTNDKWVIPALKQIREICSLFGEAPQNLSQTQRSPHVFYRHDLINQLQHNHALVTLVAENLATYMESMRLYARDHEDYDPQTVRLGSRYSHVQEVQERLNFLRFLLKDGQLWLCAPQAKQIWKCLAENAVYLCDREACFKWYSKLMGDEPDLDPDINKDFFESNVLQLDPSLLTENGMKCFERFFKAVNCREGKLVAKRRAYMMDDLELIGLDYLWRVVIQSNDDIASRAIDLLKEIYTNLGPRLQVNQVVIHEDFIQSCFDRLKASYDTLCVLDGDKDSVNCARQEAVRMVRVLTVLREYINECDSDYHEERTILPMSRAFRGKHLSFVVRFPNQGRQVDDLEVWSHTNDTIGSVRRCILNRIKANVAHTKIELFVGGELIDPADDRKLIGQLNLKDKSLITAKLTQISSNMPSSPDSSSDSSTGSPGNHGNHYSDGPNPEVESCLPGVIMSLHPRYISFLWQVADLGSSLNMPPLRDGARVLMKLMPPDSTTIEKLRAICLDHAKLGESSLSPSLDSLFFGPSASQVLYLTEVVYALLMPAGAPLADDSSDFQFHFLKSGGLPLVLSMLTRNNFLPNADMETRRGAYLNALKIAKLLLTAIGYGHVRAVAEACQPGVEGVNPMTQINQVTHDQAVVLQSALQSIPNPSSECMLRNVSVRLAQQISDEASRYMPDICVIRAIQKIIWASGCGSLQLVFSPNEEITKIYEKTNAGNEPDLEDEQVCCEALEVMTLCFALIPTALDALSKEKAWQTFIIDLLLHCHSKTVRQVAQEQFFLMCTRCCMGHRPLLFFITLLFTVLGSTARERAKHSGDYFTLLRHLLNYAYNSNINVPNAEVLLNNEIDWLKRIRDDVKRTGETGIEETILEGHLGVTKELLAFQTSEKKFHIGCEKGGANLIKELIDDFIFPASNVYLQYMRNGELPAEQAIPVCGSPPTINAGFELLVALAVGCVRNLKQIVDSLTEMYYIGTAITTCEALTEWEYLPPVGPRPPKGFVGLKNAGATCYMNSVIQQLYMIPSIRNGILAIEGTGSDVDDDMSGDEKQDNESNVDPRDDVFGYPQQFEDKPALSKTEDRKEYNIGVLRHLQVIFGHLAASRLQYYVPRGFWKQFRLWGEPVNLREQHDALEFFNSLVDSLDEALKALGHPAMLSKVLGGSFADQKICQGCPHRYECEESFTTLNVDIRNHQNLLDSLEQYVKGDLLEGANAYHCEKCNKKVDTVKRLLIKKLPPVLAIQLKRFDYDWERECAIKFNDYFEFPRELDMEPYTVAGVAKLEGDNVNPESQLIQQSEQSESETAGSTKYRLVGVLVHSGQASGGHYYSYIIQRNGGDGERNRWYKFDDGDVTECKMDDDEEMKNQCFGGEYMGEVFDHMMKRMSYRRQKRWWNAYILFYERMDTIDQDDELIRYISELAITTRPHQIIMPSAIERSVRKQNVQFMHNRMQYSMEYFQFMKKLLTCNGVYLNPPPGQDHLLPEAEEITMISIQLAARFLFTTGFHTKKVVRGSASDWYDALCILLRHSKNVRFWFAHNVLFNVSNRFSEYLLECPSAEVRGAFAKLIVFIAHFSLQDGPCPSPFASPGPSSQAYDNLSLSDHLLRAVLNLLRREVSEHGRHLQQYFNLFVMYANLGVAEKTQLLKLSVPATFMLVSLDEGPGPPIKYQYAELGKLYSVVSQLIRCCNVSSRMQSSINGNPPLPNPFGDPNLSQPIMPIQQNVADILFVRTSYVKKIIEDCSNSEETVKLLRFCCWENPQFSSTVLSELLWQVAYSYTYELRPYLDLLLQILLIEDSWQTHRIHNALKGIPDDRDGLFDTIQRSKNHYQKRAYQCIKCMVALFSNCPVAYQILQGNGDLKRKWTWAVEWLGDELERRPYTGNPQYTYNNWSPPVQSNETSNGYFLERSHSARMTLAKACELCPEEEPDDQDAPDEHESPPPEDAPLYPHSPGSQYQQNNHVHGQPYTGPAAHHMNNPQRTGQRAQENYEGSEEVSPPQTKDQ", "assay": "HA-Ubiquitin-Vinylsulfone activity profiling in K562 lysates", "format": "biochemical", "protocol": "Panel B is an image of an immunoblot showing the titration of TCM23 and TCM28 in K562 lysates. Panel C is a plot showing the quantitation of band corresponding to USP9x in panel B. Panel D is an image of an immunoblot showing the titration of WP1130 in K562 lysates. Panel E is a plot showing the quantification of the efficacy of ITCs for the inhibition of USP9x in K562 lysates (see also Table 2).\n[…] After this time HA-Ub-VS (1.5 μM) was added and incubated for 15 min. After this time reaction mixture (15 μL) was removed and quenched in 2× (final concentration) reducing Laemeli buffer. The reaction mixtures were heated to 37° C. for 10 min prior to analysis by western blot for HA."}, "[3]": {"tested_on": "G76VUb-GFP in COS1 cells", "assay": "UbG76V-GFP proteasome assay in COS1 cells", "format": "cell-based", "settings": "COS1, 8 h", "protocol": "COS1 cells at approx. 75% confluence in a 48 well plate were transiently transfected with a plasmid encoding G76VUb-GFP using Mirus 2020 reagent. After this time media with either compound in DMSO or 1% DMSO was added to the cells and the cells were incubated for 8 h. After this time, cells were trypsinized, diluted with 1% FBS in PBS (FACS buffer) then centrifuged at 700 g. After this time cells on ice were treated with FACS buffer containing propidium iodide (0.05 mg/mL). The GFP (indicating proteasome activity) and red fluorescence (dye exclusion showing acute toxicity) were subsequently measured by FACS."}, "[4]": {"tested_on": "DUBs other than USP9x, most notably UCHL5", "assay": "HA-Ubiquitin-Vinylsulfone activity profiling, other DUBs", "format": "biochemical", "protocol": "Lysate labeling assay on untransfected cells (1.5 mg/mL lysate lysed using a Dounce homogenizer, 10 strokes, in 75 mM potassium phosphate pH 7.6, 150 mM NaCl, 0.75 mM BME) was run with the stated concentration of inhibitor (or 1% DMSO control) for 30 min. After this time HA-Ub-VS (1.5 μM) was added and incubated for 15 min. After this time reaction mixture (15 μL) was removed and quenched in 2× (final concentration) reducing Laemeli buffer. The reaction mixtures were heated to 37° C. for 10 min prior to analysis by western blot for HA. […] EC50s calculated by this method were in agreement with those found in the HA-blot."}, "[5]": {"tested_on": "BaF3/p210 cells", "assay": "Proliferation assay (Alamar Blue), BaF3/p210", "format": "cell-based, murine", "source_text": "This cell line consists of engineered murine leukemia cells that ectopically express Bcr-Abl. Parent BaF3 cells require exogenous interleukin 3 (IL3) because IL3 stimulates expression of MCL1, which is required for survival. However, BaF3/p210 cells require no exogenous interleukins but need Bcr-Abl for survival."}, "[6]": {"tested_on": "DUBs", "assay": "Cy5-Ub-VME activity profiling of treated BaF3/p210 cells", "format": "cell-based, murine", "settings": "TU71 for 2.5 h or 4 h", "protocol": "FIG. 9 has two panels (A and B) depicting data showing that TUs inhibit DUBs in cells. BaF3/p210 cells were incubated with the stated concentration of compound for 4 h. After this time cells were lysed using beads, lysates were normalized, then exposed to Cy5-Ub-VME for 5 min. After quenching, lysates were resolved by SDS-PAGE, analyzed on typhoon, then stained by Coomassie. Panel A is an image of the SDS-PAGE gel visualized via Typhoon imager. Panel B is an image of the SDS PAGE gel stained with Coomassie.\n(§1) Panel A is the chemical structure of TU71. Panel B is an image of an immunoblot showing a K562 cell was treated with TU71 for 15 min at which time HAUb-VS was added. After an additional 15 min, aliquots were quenched in reducing loading buffer and analyzed by SDS-PAGE and HA blot. […] BaF3/p21 0 cells were treated with TU71 for 2.5 h (Panel C) or 4 h (Panel D). Cells were harvested, lysed and incubated (0.7 mg/mL protein) with 250 nM Cy5-UbVME for 5 min at 37° C. […] Panel E is an image of an immunoblot showing BaF3/p210 cells were incubated with TU71 for 4 h. The cells were harvested, lysed, analyzed by SDS-PAGE and immunoblotted as indicated. “cPARP” indicates the caspase cleavage of product of PARP and is indicative of apoptosis. Panel F is a bar graph showing data representative of mean±range of two independent experiments, one performed in duplicate of the blot depicted in Panel E.\nThe increased promiscuity of the inhibitors when the experiment is carried out in cells likely stems from the increased assay time (4 h vs 20 min) coupled with the slow on rates of the inhibitors and their targets."}, "[7]": {"tested_on": "MCL-1", "assay": "MCL-1 immunoblot in BaF3/p210 cells", "format": "cell-based, murine", "settings": "4 h", "protocol": "as §1"}, "[8]": {"tested_on": "BaF3/p210 cells", "assay": "Apoptosis (cPARP) in BaF3/p210 cells", "format": "cell-based, murine", "settings": "4 h", "protocol": "as §1"}, "[9]": {"tested_on": "3T3", "assay": "Proliferation assay, 3T3", "settings": "read-out: EC50 3T3; WP1130, time not stated"}, "[10]": {"tested_on": "HeLa", "assay": "Proliferation assay, HeLa", "settings": "read-out: EC50 HeLa"}, "[11]": {"tested_on": "MCF7", "assay": "Proliferation assay, MCF7", "settings": "read-out: EC50 MCF7"}, "[12]": {"tested_on": "B16-F10", "assay": "Proliferation assay, B16-F10", "settings": "read-out: EC50 B16-F10; WP1130, time not stated"}, "[13]": {"settings": "HA-Ub-VS profiling, values in text, read-out: EC50 for USP9x"}, "[14]": {"settings": "inhibition of USP9x in K562 lysates, data from FIG. 1, read-out: EC50"}},
  "note": "Where two headings read alike, the source gives them in different places.",
  "data": [
    {"smiles": "CC(C)(C)OC(=O)NCc1ccc(N(C(=S)Oc2ccc(Cl)cc2)C(=S)Oc2ccc(Cl)cc2)cc1", "note": "[TCM40]", "values": [
      {"measurement": "EC50 for cathepsin C inhibition", "setting": "[1]", "result": "low micromolar range"}
    ]},
    {"smiles": "CN(C)c1ccc(N(C(=S)Oc2ccccc2)C(=S)Oc2ccccc2)cc1", "note": "[TCM43]", "values": [
      {"measurement": "relative potency as cathepsin C inhibitor", "setting": "[1]", "result": "most potent inhibitor"},
      {"measurement": "EC50 for cathepsin C inhibition", "setting": "[1]", "result": "low micromolar range"}
    ]},
    {"smiles": "CC(C)(C)OC(=O)NCc1ccc(N(C(=S)Oc2ccc(F)cc2)C(=S)Oc2ccc(F)cc2)cc1", "note": "[TCM58]", "values": [
      {"measurement": "EC50 for cathepsin C inhibition", "setting": "[1]", "result": "low micromolar range"}
    ]},
    {"smiles": "Cc1cccc(N=C=S)c1", "note": "[TU70]", "values": [
      {"measurement": "EC50", "setting": "[2]; [13]", "result": "> 50", "unit": "µM"},
      {"measurement": "EC50", "setting": "[2]; [14]", "result": 61, "unit": "µM"}
    ]},
    {"smiles": "CC(C)(C)OC(=O)NCc1cccc(N(C(=S)Oc2ccccc2)C(=S)Oc2ccccc2)c1", "note": "[TCM97]", "values": [
      {"measurement": "EC50 for cathepsin C inhibition", "setting": "[1]", "result": "low micromolar range"}
    ]},
    {"smiles": "CC(C)C[C@H](NC(=O)[C@H](Cc1ccccc1)NC(=O)c1cnccn1)B(O)O", "note": "[Bortezomib, reference compound]", "values": [
      {"measurement": "GFP signal", "setting": "[3]", "result": "two-fold increase in GFP signal"}
    ]},
    {"smiles": "Cc1ccc(OC(=S)N(C(=S)Oc2ccc(C)cc2)c2ccc(CNC(=O)OC(C)(C)C)cc2)cc1", "note": "[TCM42]", "values": [
      {"measurement": "EC50 for cathepsin C inhibition", "setting": "[1]", "result": "low micromolar range"}
    ]},
    {"smiles": "N#Cc1cc(F)cc(N=C=S)c1", "note": "[TU74]", "values": [
      {"measurement": "EC50", "setting": "[2]; [14]", "result": 22, "unit": "µM"}
    ]},
    {"smiles": "Fc1cccc(N=C=S)c1", "note": "[TU81]", "values": [
      {"measurement": "EC50", "setting": "[2]; [14]", "result": 20, "unit": "µM"}
    ]},
    {"smiles": "CC(C)(C)OC(=O)NCc1ccc(N(C(=S)Oc2ccccc2)C(=S)Oc2ccccc2)cc1", "note": "[TCM41]", "values": [
      {"measurement": "EC50 for cathepsin C inhibition", "setting": "[1]", "result": "low micromolar range"}
    ]},
    {"smiles": "S=C=Nc1ccccc1", "note": "[TU76]", "values": [
      {"measurement": "EC50", "setting": "[2]; [13]", "result": "> 50", "unit": "µM"},
      {"measurement": "EC50", "setting": "[2]; [14]", "result": 131, "unit": "µM"}
    ]},
    {"smiles": "CC(C)(C)OC(=O)NCCc1cccc(N=C=S)c1", "note": "[TU71]", "values": [
      {"measurement": "EC50", "setting": "[2]; [13]", "result": "6 to 12", "unit": "µM"},
      {"measurement": "EC50", "setting": "[2]; K562 treated with TU71 for 15 min, then HAUb-VS 15 min (FIG. 13), read-out: EC50 for USP9x inhibition", "result": "20 ± 1", "unit": "µM"},
      {"measurement": "EC50", "setting": "[2]; [14]", "result": 9, "unit": "µM"},
      {"measurement": "inhibition of other DUBs other than USP9x", "setting": "[4]; at 85 μM", "result": "weak inhibition"},
      {"measurement": "inhibition of other DUBs", "setting": "[4]; below 25 μM", "result": "little inhibition"},
      {"measurement": "growth inhibition of BaF3/p210 cells", "setting": "[5]", "result": "did not show a significant growth inhibition until very high concentrations"},
      {"measurement": "DUB inhibition in cells", "setting": "[6]", "result": "inhibits DUBs"},
      {"measurement": "level of MCL-1", "setting": "[7]", "result": "decreases the level"},
      {"measurement": "apoptosis", "setting": "[8]", "result": "initiates apoptosis"}
    ]},
    {"smiles": "O=[N+]([O-])c1ccc(N=C=S)cc1", "note": "[TU79]", "values": [
      {"measurement": "EC50", "setting": "[2]; [14]", "result": 11, "unit": "µM"}
    ]},
    {"smiles": "CCC[C@H](NC(=O)/C(C#N)=C/c1cccc(Br)n1)c1ccccc1", "note": "[WP1130, reference compound]", "values": [
      {"measurement": "EC50", "setting": "[2]; [13]", "result": 3, "unit": "µM"},
      {"measurement": "inhibition of other USPs", "setting": "[4]; conditions as for USP9x EC50", "result": "also inhibited"},
      {"measurement": "EC50", "setting": "[9]", "result": 3, "unit": "µM"},
      {"measurement": "EC50", "setting": "[10]", "result": 3, "unit": "µM"},
      {"measurement": "EC50", "setting": "[11]", "result": 3, "unit": "µM"},
      {"measurement": "EC50", "setting": "[12]", "result": 3, "unit": "µM"}
    ]}
  ]
}
